How the values were obtained:
Type in all cases: cell-based
TRPC4 channels = biological target: T1, TRPC4 channels (Homo sapiens, UniProt Q9UBN4); assay: Excised outside-out patch-clamp, HEK 293 cells transiently expressing hTRPC4; conditions: 30 nM EA; at 3 to 100 nM AM237
T1 construct: expressed in transfected cells; host or cells: HEK 293 (transient)
T1 sequence (Q9UBN4 1-977): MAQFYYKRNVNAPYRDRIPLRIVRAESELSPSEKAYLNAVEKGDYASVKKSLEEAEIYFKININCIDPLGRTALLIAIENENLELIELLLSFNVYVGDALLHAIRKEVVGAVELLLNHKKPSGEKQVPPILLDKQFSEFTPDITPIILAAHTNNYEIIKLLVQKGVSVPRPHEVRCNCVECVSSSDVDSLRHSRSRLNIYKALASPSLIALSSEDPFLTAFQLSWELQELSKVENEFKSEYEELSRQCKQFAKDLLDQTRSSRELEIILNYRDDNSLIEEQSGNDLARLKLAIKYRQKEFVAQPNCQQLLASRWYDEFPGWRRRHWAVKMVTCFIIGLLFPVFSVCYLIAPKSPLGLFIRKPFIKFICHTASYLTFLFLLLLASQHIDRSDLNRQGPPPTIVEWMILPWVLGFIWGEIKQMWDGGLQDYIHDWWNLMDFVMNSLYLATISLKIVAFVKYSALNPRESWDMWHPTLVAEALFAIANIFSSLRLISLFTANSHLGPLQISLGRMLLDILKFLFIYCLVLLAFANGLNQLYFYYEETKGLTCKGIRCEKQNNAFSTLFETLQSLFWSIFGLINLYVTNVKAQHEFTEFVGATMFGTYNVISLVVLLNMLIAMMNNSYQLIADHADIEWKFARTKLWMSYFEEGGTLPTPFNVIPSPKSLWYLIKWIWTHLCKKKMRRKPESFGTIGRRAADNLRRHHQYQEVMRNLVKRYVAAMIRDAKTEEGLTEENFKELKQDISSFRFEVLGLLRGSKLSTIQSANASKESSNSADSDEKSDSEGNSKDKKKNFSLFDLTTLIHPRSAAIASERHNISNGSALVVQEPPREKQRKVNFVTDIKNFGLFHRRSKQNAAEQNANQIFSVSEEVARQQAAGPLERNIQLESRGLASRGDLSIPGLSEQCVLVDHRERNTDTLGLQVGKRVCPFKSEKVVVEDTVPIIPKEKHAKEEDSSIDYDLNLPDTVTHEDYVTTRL
Experimental: For electrophysiology experiments, cells were plated at a low density of 20–30% onto round or square glass coverslips (13 mm diameter or 5 × 5 mm), and TRPC expression in HEK T‐REx was induced with 1 μg·ml^−1 tetracycline 24 hr before experimentation. Experiments were carried out at room temperature. Extracellular solution consisted of SBS. Patch‐clamp recordings were performed in whole‐cell mode (Figure S7) and in excised outside‐out patch mode under voltage clamp at room temperature using 2–4 MΩ patch pipettes fabricated from borosilicate glass capillaries with an outside diameter of 1 mm and an inside diameter of 0.58 mm (Harvard Apparatus). The voltage protocol comprised voltage ramps applied from −100 to +100 mV every 10 s from a holding potential of 0 mV. The patch‐clamp currents were recorded using Axopatch 200B or HEKA EPC‐800 amplifiers, digitized by a Digidata 1440 or PCI6229 (National Instruments Japan, Tokyo, Japan) and recorded to a computer using pCLAMP10 (Molecular Devices) or WinWCPV4.5 (developed by Dr John Dempster, University of Strathclyde, UK). The data were filtered at 1 kHz and analysed offline using Clampfit 10.2 software or WinWCPV4.5 and Origin 9.1 software (OriginLab, Northampton, MA). […]

TRPC3 = biological target: T2, TRPC3 (Homo sapiens, UniProt Q13507); assay: [Ca2+]i selectivity assay, WT HEK 293 cells transiently transfected with hTRPC3, OAG activation; conditions: 300 nM AM237; 100 μM OAG
T2 construct: expressed in transfected cells; host or cells: WT HEK 293 (transient, jetPRIME)
T2 sequence (Q13507 1-921): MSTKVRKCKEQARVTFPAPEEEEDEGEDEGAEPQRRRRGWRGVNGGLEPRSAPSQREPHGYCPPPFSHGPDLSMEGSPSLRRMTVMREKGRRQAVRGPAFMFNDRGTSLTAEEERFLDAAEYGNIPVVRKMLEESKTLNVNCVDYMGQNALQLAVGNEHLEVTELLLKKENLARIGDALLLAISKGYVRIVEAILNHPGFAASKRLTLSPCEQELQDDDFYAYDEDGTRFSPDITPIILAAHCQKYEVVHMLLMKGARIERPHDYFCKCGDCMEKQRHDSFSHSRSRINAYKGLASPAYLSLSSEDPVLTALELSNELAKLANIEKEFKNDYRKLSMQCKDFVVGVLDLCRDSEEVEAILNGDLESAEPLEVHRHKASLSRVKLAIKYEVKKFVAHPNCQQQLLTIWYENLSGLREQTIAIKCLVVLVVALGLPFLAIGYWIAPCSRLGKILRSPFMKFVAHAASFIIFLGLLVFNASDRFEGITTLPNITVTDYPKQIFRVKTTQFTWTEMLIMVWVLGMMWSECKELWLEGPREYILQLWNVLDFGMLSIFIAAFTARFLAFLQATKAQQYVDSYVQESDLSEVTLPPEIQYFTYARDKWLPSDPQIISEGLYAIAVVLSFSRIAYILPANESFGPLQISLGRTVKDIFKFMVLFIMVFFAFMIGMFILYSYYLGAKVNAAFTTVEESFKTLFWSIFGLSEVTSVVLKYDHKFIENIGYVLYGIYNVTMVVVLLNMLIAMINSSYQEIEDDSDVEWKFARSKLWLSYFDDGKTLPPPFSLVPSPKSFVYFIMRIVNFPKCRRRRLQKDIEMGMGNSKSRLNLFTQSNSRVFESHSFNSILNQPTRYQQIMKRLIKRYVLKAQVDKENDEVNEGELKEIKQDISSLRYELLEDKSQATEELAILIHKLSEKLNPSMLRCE

TRPV4 = biological target: T3, TRPV4 (Homo sapiens, UniProt Q9HBA0); assay: [Ca2+]i selectivity assay, CHO cells stably expressing hTRPV4, 4α-PDD activation; conditions: 300 nM AM237; 5 μM 4α-PDD
T3 construct: expressed in transfected cells
T3 sequence (Q9HBA0 whole entry): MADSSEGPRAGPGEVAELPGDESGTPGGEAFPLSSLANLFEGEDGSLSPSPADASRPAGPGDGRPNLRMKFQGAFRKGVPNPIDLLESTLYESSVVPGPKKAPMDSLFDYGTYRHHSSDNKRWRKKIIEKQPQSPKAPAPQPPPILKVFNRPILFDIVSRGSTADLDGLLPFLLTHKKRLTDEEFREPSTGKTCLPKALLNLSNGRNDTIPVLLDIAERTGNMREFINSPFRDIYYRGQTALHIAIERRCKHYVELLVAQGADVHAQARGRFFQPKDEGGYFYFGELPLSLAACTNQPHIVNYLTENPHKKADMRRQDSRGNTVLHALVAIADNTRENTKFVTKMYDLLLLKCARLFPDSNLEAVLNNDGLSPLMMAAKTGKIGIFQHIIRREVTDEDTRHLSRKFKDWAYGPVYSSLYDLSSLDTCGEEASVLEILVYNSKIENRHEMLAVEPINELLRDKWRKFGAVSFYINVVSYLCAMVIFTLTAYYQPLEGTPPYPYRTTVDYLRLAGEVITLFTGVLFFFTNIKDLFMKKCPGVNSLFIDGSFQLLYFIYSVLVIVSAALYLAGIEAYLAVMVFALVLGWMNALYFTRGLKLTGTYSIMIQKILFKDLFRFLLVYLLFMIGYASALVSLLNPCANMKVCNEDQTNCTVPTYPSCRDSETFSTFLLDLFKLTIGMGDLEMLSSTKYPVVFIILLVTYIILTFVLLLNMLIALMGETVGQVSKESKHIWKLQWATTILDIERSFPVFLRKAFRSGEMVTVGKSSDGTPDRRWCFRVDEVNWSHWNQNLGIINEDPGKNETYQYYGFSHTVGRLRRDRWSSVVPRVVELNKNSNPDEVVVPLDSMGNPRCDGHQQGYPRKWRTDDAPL

Cn1c(=O)n(CCCO)c(=O)c2c1nc(Oc1ccc(Cl)c(OC(F)(F)F)c1)n2Cc1ccc(Cl)cc1 [AM237]
Inhibition of currents induced by EA (TRPC4 channels): full inhibition | Activation or inhibition of TRPC3 (TRPC3): no activation or inhibition | Activation or inhibition of TRPV4 (TRPV4): no activation or inhibition

From article PMC6811774, “Potent, selective, and subunit‐dependent activation of TRPC5 channels by a xanthine derivative” (British Journal of Pharmacology, 2019)
